Assay results reported in paper PMC5588548, “Suramin Inhibits Osteoarthritic Cartilage Degradation by Increasing Extracellular Levels of Chondroprotective Tissue Inhibitor of Metalloproteinases 3” (Molecular Pharmacology, 2017).
Entries after “also recorded” stand apart in the source; their conditions may differ. Counter-ions that a name gives are not always drawn. Like-named read-outs stand apart in the source and are kept apart here.

What was measured:
human TIMP-3 = target: T1, human TIMP-3 (Homo sapiens, UniProt P35625); experiment: Solid-phase binding of TIMP-3 to immobilized suramin or analogs (ELISA); details: TIMP-3 0.4–50 nM; for EC50: plates coated with 10 µg/ml compound, one-site specific binding model, mean ± S.E., n = 3; for Kd: solid-phase binding assay, plates coated 10 µg/ml, read-out: KD value for TIMP-3 binding to immobilized compound
T1 construct: made in house; host or cells: human embryonic kidney 293 cells
T1 sequence (P35625 24-211): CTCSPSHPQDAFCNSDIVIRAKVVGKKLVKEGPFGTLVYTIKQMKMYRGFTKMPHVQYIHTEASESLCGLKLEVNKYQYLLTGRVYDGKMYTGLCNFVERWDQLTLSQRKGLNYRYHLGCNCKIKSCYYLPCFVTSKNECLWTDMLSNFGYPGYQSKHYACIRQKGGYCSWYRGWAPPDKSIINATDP
Experimental: Glycosaminoglycan-binding ELISA plates (BD Life Sciences, Swindon, UK) were coated with suramin or its analogs (10 µg/ml in Tris-buffered saline, 18 hours, 25°C) ([Mahoney et al., 2004]) and wells were blocked with 0.2% gelatin in PBS (1 hour, 37°C). Wells were washed in PBS containing 0.1% Tween 20 after this and every subsequent step. Purified FLAG-tagged human TIMP-3 (0.4–50 nM) in blocking solution was applied to wells (3 hours, 37°C), and binding was detected with anti-FLAG M2 primary antibody and anti-mouse horseradish peroxidase–conjugated secondary antibody. 3,3′,5,5′-Tetramethylbenzidine (Becton Dickinson, Swindon, UK) substrate was added, the reaction was stopped when appropriate by adding 2 N H2SO4, and absorbance at 450 nm was measured using a FLUOstar Omega microplate reader (BMG Labtech, Aylesbury, Buckinghamshire, UK). Data (mean ± S.E., n = 3 technical repeats) were analyzed using Prism 7.0b software (GraphPad Software, La Jolla, CA) and EC50 values determined using a one-site specific binding model. Flat planar dimensions of suramin analogs were estimated using ICM-Pro software (Molsoft LLC, San Diego, CA).

[1] = tested on: porcine cartilage explants; experiment: Aggrecan release from porcine cartilage explants (DMMB assay, neo-epitope immunoblotting); format: cell-based; details: porcine cartilage explants; for IC50: Sus scrofa; for protection of cartilage (release of aggrecan fragments) compared with suramin: 200 µg/ml compound
Experimental: The effects of suramin on cartilage degradation were assessed using porcine or human cartilage explants. Explants were rested for 48 hours after dissection and were washed with serum-free DMEM. […]
Aggrecan degradation was analyzed by quantifying aggrecan fragments released into the conditioned media using the dimethylmethylene blue (DMMB) dye-binding assay ([Farndale et al., 1986]) (mean ± S.D., n = 3) and by immunoblotting with neo-epitope antibodies that recognize ADAMTS-cleaved but not intact aggrecan. For immunoblotting, conditioned media were deglycosylated by adding an equal volume of 200 mM sodium acetate and 50 mM Tris/HCl, pH 6.8, containing chondroitinase and β-endoglycosidase (0.05 U each; 18 hours, 37°C; Sigma-Aldrich). Aggrecan fragments were precipitated by adding five volumes of ice-cold acetone (18 hours, −20°C). After centrifugation (13,000 rpm, 10 minutes, 4°C), pellets were resuspended in SDS sample buffer, separated by electrophoresis on a 6% (v/v) polyacrylamide gel, and blotted onto polyvinylidene fluoride. Membranes were blocked with 5% (m/v) BSA in Tris-buffered saline and incubated with either a rabbit antibody that recognizes the AGEG neo-epitope generated by ADAMTS cleavage of the TAQE^1771∼^1772AGEG bond of aggrecan ([Troeberg et al., 2008]) or a mouse antibody that recognizes the ARGSV neo-epitope generated by ADAMTS cleavage of the NITEGE^373∼^374ARGSV bond ([Hughes et al., 1995]).

[2] = tested on: HTB94 chondrosarcoma cells; experiment: Accumulation of endogenous TIMP-3 in medium of HTB94 cells; format: cell-based; details: 200 µg/ml compound, 36 hours, immunoblotting
Experimental: Cells (HTB94 chondrosarcoma cells, primary porcine chondrocytes, or human osteoarthritic chondrocytes) were plated overnight (6 × 10^5 cells per well of a 12-well plate) in DMEM containing 10% FCS and washed three times in serum-free DMEM.
Media were harvested, precipitated with trichloroacetic acid, and analyzed by immunoblotting using a rabbit anti–TIMP-3 polyclonal antibody (AB6000; Millipore, Hertfordshire, UK) and an alkaline phosphatase–conjugated anti-rabbit secondary antibody (Promega). […]

[3] = tested on: purinergic signaling in chondrocytes; parameters: method as in Varani et al., 2008; details: compared with suramin; ref Varani et al., 2008; cited from earlier work
[4] = retinoic acid 1 µM, 48 hours, DMMB assay

Row | Structure (SMILES) | EC50 (human TIMP-3) | protection of cartilage (release of aggrecan fragments) compared with suramin [1, 4] | TIMP-3 accumulation in the medium relative to suramin, defined as 100% [2] | also measured
1 | O=C(Nc1cccc(C(=O)Nc2ccc(S(=O)(=O)O)c3cc(S(=O)(=O)O)cc(S(=O)(=O)O)c23)c1)Nc1cccc(C(=O)Nc2ccc(S(=O)(=O)O)c3cc(S(=O)(=O)O)cc(S(=O)(=O)O)c23)c1 [NF023, 8,8′-[carbonylbis(imino-3,1-phenylenecarbonylimino)]bis-1,3,5-naphthalene-trisulphonic acid, hexasodium salt] | 26.5 ± 7.5 nM |  |  | 
2 | O=C(Nc1cc(C(=O)Nc2ccc(S(=O)(=O)O)cc2)cc(C(=O)Nc2ccc(S(=O)(=O)O)cc2)c1)Nc1cc(C(=O)Nc2ccc(S(=O)(=O)O)cc2)cc(C(=O)Nc2ccc(S(=O)(=O)O)cc2)c1 [NF110, 4,4′,4′′,4′′′-[carbonylbis[imino-5,1,3-benzenetriylbis(carbonylimino)]]tetrakisbenzenesulfonic acid tetrasodium salt] | 6.88 ± 0.96 nM |  |  | 
3 | O=C(Nc1cccc(C(=O)Nc2cc(C(=O)Nc3ccc(S(=O)(=O)O)c4cc(S(=O)(=O)O)cc(S(=O)(=O)O)c34)ccc2F)c1)Nc1cccc(C(=O)Nc2cc(C(=O)Nc3ccc(S(=O)(=O)O)c4cc(S(=O)(=O)O)cc(S(=O)(=O)O)c34)ccc2F)c1 [NF157, 8,8′-[carbonylbis[imino-3,1-phenylenecarbonylimino(4-fluoro-3,1-phenylene)carbonylimino]]bis-1,3,5-naphthalenetrisulfonic acid hexasodium salt] | 1.55 ± 0.11 nM |  |  | Kd (human TIMP-3): 1.5 ± 0.11 nM
4 | O=C(Nc1ccc(C(=O)Nc2ccc(C(=O)Nc3ccc(S(=O)(=O)O)c4cc(S(=O)(=O)O)cc(S(=O)(=O)O)c34)cc2)cc1)Nc1ccc(C(=O)Nc2ccc(C(=O)Nc3ccc(S(=O)(=O)O)c4cc(S(=O)(=O)O)cc(S(=O)(=O)O)c34)cc2)cc1 [NF279, 8,8′-[carbonylbis(imino-4,1-phenylenecarbonylimino-4,1-phenylenecarbonylimino)]bis-1,3,5-naphthalenetrisulfonic acid hexasodium salt] | 0.85 ± 0.09 nM | markedly improved activity | 233% ± 73% | Kd (human TIMP-3): 0.85 ± 0.09 nM; IC50 ([1]; 48 h, retinoic acid 1 µM, 48 hours, DMMB assay, read-out: IC50 for inhibition of aggrecan release): 15.6 ± 10 µg/mL; IC50 ([1]; µg/ml value given in molar units, read-out: IC50 for chondroprotective activity): 11600 nM; improvement of IC50 value relative to suramin [1]: 6 fold; IC50 for inhibition of aggrecan release [1, 4]: 15 µg/mL; inhibition of purinergic signaling in chondrocytes [3]: less effective than suramin
5 | Cc1ccc(C(=O)Nc2cc(S(=O)(=O)[O-])cc3ccc(S(=O)(=O)[O-])cc23)cc1NC(=O)Nc1cc(C(=O)Nc2cc(S(=O)(=O)[O-])cc3ccc(S(=O)(=O)[O-])cc23)ccc1C.[Na+].[Na+].[Na+].[Na+] [NF340, 4,4′-(carbonylbis(imino-3,1-(4-methyl-phenylene)carbonylimino))bis(naphthalene-2,6-disulfonic acid) tetrasodium salt] | > 100 nM | less effective | minimal efficacy; also recorded: less effective | 
6 | O=C(Nc1cc(C(=O)Nc2ccc(S(=O)(=O)O)cc2S(=O)(=O)O)cc(C(=O)Nc2ccc(S(=O)(=O)O)cc2S(=O)(=O)O)c1)Nc1cc(C(=O)Nc2ccc(S(=O)(=O)O)cc2S(=O)(=O)O)cc(C(=O)Nc2ccc(S(=O)(=O)O)cc2S(=O)(=O)O)c1 [NF449, 4,4′,4′′,4′′′-[carbonylbis(imino-5,1,3-benzenetriyl-bis(carbonylimino))]tetrakis-1,3-benzenedisulfonic acid, octasodium salt] | 4.66 ± 0.69 nM |  |  | 
7 | Cc1ccc(C(=O)Nc2ccc(CP(=O)([O-])O)cc2CP(=O)([O-])O)cc1NC(=O)c1cccc(NC(=O)Nc2cccc(C(=O)Nc3cc(C(=O)Nc4ccc(CP(=O)([O-])O)cc4CP(=O)([O-])O)ccc3C)c2)c1.[Na+].[Na+].[Na+].[Na+] [NF546, 4,4′-(carbonylbis(imino-3,1-phenylene-carbonylimino-3,1-(4-methyl-phenylene)carbonylimino))-bis(1,3-xylene-α,α′-diphosphonic acid tetrasodium salt] | > 100 nM |  |  | 
8 | Cc1ccc(C(=O)Nc2ccc(CP(=O)([O-])O)cc2CP(=O)([O-])O)cc1NC(=O)c1cccc(NC(=O)Nc2cccc(C(=O)Nc3cc(C(=O)Nc4ccc(CP(=O)([O-])O)cc4CP(=O)([O-])O)ccc3C)c2)c1.[Na+].[Na+].[Na+].[Na+] [NF546] |  | less effective | minimal efficacy; also recorded: less effective | 
